Active and inactive are the calls of the source. No cut-off for these calls is given here.

Common to all, as to assay type: cell-based
The target in assay [1] is T1, Nuclear factor erythroid 2-related factor 2 (Homo sapiens) (UniProt Q16236).
T1 sequence (whole entry): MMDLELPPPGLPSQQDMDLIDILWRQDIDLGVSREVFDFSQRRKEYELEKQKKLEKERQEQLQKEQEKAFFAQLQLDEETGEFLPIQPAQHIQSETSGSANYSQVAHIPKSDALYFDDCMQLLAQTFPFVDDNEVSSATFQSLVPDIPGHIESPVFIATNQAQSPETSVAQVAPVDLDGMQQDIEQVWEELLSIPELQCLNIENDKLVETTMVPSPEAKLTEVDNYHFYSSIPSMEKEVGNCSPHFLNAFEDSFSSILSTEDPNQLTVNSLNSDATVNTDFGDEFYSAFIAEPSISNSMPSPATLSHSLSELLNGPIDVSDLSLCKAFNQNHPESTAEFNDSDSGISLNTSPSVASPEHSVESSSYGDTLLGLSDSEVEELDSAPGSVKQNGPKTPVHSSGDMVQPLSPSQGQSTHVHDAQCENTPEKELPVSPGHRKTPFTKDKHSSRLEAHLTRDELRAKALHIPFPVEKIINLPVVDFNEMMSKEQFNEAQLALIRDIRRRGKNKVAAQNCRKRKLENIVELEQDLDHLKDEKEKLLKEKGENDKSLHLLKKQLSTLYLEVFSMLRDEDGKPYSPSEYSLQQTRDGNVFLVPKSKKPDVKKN
Nature of the assay: Activation of Nrf2 in human DLD1 cells assessed as increase of NQO1 protein level at 20 uM after 48 hrs by Western blot analysis. The following applies: DLD-1. On the technique in general: Immunoblotting shows a protein as a band on a membrane.

Assay [2] deals with T1, Nuclear factor erythroid 2-related factor 2 (Homo sapiens). Nature of the assay: Activation of Nrf2 in human DLD1 cells after 24 to 48 hrs by luciferase reporter gene assay. The settings on record: DLD-1.
Assay [3] has the same target. Nature of the assay: Activation of Nrf2 in human DLD1 cells assessed as stabilization of Nrf2 protein at 20 uM after 48 hrs by Western blot analysis. The following applies: DLD-1.
Assay [4] addresses Kelch-like ECH-associated protein 1 (Homo sapiens) (UniProt Q14145). Briefly: Binding affinity to human recombinant Kelch-DC domain of Keap1 (321 to 609) expressed in HEK293T cells assessed as covalent adduct formation with cysteines at 1 mM after 15 hrs by 2D-FIDA assay. The settings on record: HEK-293T.

Chain of Kelch-like ECH-associated protein 1 (Homo sapiens) (Q14145 whole entry, the tested form may be a part): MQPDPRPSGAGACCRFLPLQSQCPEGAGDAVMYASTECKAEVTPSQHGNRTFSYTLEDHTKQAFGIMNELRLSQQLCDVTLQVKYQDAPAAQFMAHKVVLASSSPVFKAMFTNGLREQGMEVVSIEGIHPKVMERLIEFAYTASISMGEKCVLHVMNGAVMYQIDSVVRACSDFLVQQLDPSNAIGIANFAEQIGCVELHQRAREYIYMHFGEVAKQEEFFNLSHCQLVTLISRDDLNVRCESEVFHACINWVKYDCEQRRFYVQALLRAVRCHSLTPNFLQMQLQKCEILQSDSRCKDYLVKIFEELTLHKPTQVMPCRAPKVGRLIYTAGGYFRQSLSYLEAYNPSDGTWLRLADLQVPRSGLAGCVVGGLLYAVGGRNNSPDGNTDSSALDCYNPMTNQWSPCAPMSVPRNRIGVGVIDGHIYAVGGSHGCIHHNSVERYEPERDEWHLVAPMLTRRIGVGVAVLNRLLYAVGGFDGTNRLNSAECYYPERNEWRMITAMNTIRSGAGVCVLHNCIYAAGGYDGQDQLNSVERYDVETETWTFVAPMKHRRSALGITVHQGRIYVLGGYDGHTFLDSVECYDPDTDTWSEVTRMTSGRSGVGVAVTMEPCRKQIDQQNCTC

In the case of `COc1ccc(S(=O)(=O)Nc2ccc(NS(=O)(=O)c3ccc(OC)cc3)c3ccccc23)cc1`, the outcome in assay [1] and in assay [3] was Active. Moreover, the Activity entry in assay [2] was “Dose-dependent effect”. The result in assay [4] was inactive.

For `COC(=O)/C=C/C(=O)O`, the Activity result in assay [2] was “Dose-dependent effect”.

As to `COC(=O)/C=C/C(=O)OC`, the outcome in assay [1], in assay [3] and in assay [4] was Active. Also, the Activity result in assay [2] was “Dose-dependent effect”.

(Values after ChEMBL document CHEMBL2401631, “Small molecules inhibit the interaction of Nrf2 and the Keap1 Kelch domain through a non-covalent mechanism” (Bioorg Med Chem, 2013).)
